The values below come from ChEMBL document CHEMBL5678818, “Discovery of potent SOS1 inhibitors that block RAS activation via disruption of the RAS-SOS1 interaction” (Proc Natl Acad Sci U S A, 2019).

The target in test [1] is Wee1-like protein kinase (Homo sapiens) (UniProt P30291). In words: Inhibition of WEE1 (unknown origin) assessed as residual activity at 1000 nM by KINOMEscan analysis relative to control.
The target in test [2] is T1, Serine/threonine-protein kinase Nek9 (Homo sapiens) (UniProt Q8TD19).
T1 sequence (whole entry): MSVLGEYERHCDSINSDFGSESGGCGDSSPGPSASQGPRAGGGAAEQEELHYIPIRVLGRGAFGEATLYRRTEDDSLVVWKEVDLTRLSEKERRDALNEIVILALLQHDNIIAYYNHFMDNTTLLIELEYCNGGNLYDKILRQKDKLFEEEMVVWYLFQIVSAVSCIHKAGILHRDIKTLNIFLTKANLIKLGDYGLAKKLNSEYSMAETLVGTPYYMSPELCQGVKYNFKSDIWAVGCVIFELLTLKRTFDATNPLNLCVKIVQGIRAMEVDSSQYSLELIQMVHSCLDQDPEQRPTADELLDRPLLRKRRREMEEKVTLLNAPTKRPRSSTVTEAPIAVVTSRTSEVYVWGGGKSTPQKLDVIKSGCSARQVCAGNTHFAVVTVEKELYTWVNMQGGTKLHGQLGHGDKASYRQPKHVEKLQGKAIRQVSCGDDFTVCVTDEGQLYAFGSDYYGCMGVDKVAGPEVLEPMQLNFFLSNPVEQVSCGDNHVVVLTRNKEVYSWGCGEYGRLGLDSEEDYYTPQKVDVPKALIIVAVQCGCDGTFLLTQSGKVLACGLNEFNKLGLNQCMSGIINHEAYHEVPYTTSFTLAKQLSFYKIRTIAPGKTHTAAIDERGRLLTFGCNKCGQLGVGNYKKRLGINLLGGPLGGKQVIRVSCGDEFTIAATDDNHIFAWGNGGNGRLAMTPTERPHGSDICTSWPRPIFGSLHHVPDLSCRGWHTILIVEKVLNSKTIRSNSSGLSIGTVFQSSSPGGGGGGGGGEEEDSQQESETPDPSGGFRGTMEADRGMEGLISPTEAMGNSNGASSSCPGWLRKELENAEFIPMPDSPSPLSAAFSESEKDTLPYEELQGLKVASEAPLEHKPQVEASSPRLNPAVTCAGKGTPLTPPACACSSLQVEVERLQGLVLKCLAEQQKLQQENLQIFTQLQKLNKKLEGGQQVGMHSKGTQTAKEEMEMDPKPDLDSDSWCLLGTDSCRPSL
In words: Inhibition of NEK9 (unknown origin) assessed as residual activity at 1000 nM by KINOMEscan analysis relative to control.

For test [3], the target named is Tyrosine-protein kinase Yes (Homo sapiens) (UniProt P07947). The test is described as follows: Inhibition of YES (unknown origin) assessed as residual activity at 1000 nM by KINOMEscan analysis relative to control.
For test [4], the target named is T2, Muscle, skeletal receptor tyrosine-protein kinase (Homo sapiens) (UniProt O15146).
T2 sequence (whole entry): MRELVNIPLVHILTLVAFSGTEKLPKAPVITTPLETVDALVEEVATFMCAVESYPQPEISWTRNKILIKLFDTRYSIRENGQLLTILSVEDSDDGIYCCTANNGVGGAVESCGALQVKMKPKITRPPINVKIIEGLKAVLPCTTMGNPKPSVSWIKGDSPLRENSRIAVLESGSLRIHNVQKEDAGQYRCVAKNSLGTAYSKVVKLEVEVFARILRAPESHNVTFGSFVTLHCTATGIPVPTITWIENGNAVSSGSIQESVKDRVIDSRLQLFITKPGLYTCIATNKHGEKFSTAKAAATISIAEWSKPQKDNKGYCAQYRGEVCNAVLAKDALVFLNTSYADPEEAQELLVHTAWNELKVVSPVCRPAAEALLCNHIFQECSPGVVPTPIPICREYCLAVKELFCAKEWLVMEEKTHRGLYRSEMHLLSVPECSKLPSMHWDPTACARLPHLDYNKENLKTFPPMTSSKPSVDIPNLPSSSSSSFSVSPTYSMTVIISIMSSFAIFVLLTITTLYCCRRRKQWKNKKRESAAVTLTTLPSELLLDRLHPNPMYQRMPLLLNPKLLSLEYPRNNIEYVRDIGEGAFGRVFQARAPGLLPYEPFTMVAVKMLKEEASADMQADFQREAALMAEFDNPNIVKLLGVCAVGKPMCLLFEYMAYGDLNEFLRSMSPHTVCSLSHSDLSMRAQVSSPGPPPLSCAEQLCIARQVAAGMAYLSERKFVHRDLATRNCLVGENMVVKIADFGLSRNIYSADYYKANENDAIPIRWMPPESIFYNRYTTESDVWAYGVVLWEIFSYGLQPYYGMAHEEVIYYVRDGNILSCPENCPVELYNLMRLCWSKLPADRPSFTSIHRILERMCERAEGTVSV
In words: Inhibition of MUSK (unknown origin) assessed as residual activity at 1000 nM by KINOMEscan analysis relative to control.

In test [5] the target is Cyclin-dependent kinase 18 (Homo sapiens) (UniProt Q07002). In words: Inhibition of PCTK3 (unknown origin) assessed as residual activity at 1000 nM by KINOMEscan analysis relative to control.
Cyclin-dependent kinase 18 (Homo sapiens), sequence (Q07002 whole entry): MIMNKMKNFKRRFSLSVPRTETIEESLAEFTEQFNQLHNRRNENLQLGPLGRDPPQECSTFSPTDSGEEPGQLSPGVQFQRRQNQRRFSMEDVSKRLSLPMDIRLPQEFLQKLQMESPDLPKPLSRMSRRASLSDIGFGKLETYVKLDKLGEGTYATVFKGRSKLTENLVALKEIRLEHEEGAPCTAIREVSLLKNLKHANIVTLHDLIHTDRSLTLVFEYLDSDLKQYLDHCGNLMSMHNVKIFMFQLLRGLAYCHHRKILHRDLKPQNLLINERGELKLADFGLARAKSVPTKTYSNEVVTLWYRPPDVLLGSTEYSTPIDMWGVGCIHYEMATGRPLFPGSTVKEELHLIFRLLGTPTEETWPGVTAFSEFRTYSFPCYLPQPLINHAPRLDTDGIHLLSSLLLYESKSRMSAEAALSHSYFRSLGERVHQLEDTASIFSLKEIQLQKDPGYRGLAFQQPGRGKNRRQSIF
Test [6] addresses Angiopoietin-1 receptor (Homo sapiens) (UniProt Q02763). The test is described as follows: Inhibition of TIE2 (unknown origin) assessed as residual activity at 1000 nM by KINOMEscan analysis relative to control.
Test [7] has as its system Tyrosine-protein kinase ABL1 (Homo sapiens), P00519 [E255K]. In words: Inhibition of phosphorylated ABL1 E255K mutant (unknown origin) assessed as residual activity at 1000 nM by KINOMEscan analysis relative to control.
The target of test [8] is Focal adhesion kinase 1 (Homo sapiens) (UniProt Q05397). In words: Inhibition of FAK (unknown origin) assessed as residual activity at 1000 nM by KINOMEscan analysis relative to control.
Focal adhesion kinase 1 (Homo sapiens), sequence (Q05397 2-1052 limits assumed): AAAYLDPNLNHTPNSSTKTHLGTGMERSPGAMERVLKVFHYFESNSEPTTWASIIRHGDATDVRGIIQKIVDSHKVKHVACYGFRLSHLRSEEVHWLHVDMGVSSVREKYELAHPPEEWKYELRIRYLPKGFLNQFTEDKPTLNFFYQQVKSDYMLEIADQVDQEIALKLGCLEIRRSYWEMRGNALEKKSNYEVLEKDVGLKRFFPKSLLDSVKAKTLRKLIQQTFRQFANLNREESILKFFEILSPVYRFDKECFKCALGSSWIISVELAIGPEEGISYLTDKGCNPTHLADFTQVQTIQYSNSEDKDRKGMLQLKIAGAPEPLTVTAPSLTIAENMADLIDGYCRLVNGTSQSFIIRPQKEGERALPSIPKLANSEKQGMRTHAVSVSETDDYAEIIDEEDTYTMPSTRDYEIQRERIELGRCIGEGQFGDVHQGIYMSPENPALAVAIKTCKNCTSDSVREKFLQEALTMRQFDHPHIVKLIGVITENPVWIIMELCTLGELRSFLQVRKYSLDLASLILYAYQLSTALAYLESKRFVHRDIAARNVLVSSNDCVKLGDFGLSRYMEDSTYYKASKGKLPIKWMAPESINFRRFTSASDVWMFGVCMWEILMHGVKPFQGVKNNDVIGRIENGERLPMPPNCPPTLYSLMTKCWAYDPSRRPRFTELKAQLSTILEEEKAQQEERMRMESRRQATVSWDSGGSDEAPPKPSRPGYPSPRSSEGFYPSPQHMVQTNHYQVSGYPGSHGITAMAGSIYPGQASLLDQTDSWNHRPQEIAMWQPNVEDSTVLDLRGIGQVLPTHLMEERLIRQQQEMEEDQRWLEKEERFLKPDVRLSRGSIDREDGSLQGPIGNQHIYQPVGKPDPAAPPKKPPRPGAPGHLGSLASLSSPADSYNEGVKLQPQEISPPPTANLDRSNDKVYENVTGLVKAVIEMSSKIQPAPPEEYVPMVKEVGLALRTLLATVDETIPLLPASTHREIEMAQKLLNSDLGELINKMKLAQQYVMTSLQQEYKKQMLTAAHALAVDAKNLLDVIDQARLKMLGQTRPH
Test [9] has as its target Insulin-like growth factor 1 receptor (Homo sapiens) (UniProt P08069). The test is described as follows: Inhibition of IGF1R (unknown origin) assessed as residual activity at 1000 nM by KINOMEscan analysis relative to control.
In test [10] the target is Tyrosine-protein kinase receptor UFO (Homo sapiens) (UniProt P30530). In words: Inhibition of AXL (unknown origin) assessed as residual activity at 1000 nM by KINOMEscan analysis relative to control.
Tyrosine-protein kinase receptor UFO (Homo sapiens), sequence (P30530 whole entry): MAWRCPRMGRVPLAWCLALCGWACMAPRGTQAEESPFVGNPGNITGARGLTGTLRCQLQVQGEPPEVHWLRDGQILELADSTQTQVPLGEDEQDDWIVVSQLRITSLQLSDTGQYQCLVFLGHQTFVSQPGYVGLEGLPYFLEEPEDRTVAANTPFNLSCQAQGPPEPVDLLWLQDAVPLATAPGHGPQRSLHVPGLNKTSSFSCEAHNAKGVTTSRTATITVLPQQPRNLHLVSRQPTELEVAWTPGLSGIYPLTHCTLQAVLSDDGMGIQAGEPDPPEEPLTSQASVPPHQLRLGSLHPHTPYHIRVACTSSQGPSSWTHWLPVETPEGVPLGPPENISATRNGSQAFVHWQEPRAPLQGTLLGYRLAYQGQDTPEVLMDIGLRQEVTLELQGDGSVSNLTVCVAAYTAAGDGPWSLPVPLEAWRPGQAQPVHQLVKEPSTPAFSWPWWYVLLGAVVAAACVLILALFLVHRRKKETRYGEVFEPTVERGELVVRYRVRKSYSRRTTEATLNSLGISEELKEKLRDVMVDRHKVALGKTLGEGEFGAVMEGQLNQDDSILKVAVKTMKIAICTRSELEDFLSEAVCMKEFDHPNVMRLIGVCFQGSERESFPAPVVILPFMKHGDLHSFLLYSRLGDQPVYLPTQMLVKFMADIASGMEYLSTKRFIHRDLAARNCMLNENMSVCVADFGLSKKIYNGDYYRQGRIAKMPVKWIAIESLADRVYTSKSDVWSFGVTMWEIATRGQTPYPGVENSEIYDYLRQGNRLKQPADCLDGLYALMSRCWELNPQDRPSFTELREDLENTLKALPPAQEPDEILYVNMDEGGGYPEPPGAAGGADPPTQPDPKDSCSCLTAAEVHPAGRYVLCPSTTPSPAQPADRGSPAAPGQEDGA
Test [11] deals with Dual specificity tyrosine-phosphorylation-regulated kinase 1B (Homo sapiens) (UniProt Q9Y463). The test is described as follows: Inhibition of DYRK1B (unknown origin) assessed as residual activity at 1000 nM by KINOMEscan analysis relative to control.
Dual specificity tyrosine-phosphorylation-regulated kinase 1B (Homo sapiens), sequence (Q9Y463 whole entry, looked up): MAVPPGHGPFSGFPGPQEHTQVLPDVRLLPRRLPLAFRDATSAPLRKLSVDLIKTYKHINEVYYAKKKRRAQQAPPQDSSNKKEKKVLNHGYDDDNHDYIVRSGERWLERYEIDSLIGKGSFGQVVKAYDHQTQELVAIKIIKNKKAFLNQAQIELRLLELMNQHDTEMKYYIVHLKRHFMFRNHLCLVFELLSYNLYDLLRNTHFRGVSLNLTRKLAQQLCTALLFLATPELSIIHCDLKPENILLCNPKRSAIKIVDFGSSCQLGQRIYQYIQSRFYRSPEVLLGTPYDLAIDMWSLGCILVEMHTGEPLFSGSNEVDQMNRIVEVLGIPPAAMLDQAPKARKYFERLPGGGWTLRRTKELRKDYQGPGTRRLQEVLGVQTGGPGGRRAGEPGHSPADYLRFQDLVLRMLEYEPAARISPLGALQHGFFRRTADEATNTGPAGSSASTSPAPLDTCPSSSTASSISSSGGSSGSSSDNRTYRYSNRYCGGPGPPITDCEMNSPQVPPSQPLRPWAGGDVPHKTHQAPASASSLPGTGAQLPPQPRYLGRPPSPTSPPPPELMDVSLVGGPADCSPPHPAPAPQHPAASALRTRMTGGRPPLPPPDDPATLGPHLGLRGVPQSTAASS
Test [12] concerns the target Serine/threonine-protein kinase MRCK beta (Homo sapiens) (UniProt Q9Y5S2). The test is described as follows: Inhibition of MRCKB (unknown origin) assessed as residual activity at 1000 nM by KINOMEscan analysis relative to control.

Serine/threonine-protein kinase MRCK beta (Homo sapiens), sequence (Q9Y5S2 whole entry): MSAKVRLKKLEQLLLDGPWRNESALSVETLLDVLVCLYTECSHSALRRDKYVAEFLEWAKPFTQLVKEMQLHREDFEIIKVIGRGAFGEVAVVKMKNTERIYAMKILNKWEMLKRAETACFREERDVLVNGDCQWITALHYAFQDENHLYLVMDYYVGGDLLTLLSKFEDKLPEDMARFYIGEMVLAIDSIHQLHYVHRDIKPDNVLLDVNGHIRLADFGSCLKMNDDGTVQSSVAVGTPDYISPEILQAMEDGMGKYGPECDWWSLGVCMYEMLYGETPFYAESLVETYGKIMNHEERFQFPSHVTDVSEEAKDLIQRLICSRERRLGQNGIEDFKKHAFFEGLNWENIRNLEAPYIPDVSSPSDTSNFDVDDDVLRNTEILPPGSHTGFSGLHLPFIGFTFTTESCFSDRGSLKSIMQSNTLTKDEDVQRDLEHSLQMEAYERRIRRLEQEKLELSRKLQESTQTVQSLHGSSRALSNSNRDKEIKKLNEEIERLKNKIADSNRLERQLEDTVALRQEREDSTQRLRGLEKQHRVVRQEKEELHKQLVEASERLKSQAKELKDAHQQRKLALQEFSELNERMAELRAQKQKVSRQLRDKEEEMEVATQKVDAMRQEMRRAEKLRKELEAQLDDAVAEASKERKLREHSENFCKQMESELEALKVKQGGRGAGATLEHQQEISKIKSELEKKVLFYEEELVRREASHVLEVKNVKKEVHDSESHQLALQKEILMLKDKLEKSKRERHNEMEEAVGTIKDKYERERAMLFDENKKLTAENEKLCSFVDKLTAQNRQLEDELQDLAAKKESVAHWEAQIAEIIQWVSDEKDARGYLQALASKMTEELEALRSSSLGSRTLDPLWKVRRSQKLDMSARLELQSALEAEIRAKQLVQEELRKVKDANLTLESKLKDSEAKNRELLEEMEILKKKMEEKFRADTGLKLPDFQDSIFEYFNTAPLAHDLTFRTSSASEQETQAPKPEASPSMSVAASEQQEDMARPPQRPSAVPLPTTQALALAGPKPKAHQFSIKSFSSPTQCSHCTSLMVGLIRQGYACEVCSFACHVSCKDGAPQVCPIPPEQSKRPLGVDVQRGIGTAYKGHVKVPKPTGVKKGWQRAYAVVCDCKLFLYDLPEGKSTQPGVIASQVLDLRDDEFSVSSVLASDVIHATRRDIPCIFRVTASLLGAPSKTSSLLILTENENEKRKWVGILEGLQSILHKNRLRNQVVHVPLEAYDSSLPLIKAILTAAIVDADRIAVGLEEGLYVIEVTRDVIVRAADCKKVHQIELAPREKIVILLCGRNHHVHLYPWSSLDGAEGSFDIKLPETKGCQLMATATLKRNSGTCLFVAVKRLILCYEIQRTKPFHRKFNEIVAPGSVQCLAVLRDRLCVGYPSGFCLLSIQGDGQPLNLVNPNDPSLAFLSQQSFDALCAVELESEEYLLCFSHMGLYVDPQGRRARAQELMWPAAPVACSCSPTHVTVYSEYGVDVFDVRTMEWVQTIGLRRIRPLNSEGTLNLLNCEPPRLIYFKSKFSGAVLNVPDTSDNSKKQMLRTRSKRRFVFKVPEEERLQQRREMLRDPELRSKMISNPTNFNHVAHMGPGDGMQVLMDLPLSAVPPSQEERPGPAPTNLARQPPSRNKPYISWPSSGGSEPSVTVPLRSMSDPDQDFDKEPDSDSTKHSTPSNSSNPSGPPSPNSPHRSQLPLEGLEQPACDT

In the case of `COc1cc2ncnc(N[C@H](C)c3cccc4ccccc34)c2cc1OC`, the Activity in test [1] was 100%; in [2] it was 100%; in [3], 100%; in [4], 97%; in test [5], 100%; in test [6], 100%. In addition, the Activity in test [7] is 89%; in test [8], 100%; in [9], 100%; in test [10] it was 90%; in test [11] it was 50%; in test [12], 100%.
As to `COc1cc2nc(C)nc(N[C@H](C)c3cccc(-c4cn[nH]c4)c3)c2cc1OC`, the Activity amounted to 84% in test [1]; 97% in [2]; 67% in test [3]; 91% in test [4]; 99% in [5]; 81% in test [6]. The Activity worked out at 65% in test [7]; 95% in test [8]; 100% in test [9]; 93% in test [10]; 100% in [11]; 56% in test [12].
